Experimental data taken from patent US12421187B2, “Dihydrofolate synthase (DHFS) inhibiting agents and methods of making and using same” (Washington Univeristy, priority 2022, dated 2025).
Converted amounts (≈) assume the structure as drawn. “Also recorded” adds a separate entry of the source. Where two headings read alike, the source gives them in different places.

Legend:
[1] = biological target: T1, dihydropteroate synthase (DHPS) (Escherichia coli, UniProt P0AC13); assay: HPPK/DHPS/DHFR steady state kinetics inhibition assay (NADPH consumption, absorbance at 340 nm); type: biochemical, E. coli
T1 construct: made in house; host or cells: E. coli BL21 (given for HPPK; the other enzymes 'in the same manner')
T1 sequence (P0AC13 whole entry): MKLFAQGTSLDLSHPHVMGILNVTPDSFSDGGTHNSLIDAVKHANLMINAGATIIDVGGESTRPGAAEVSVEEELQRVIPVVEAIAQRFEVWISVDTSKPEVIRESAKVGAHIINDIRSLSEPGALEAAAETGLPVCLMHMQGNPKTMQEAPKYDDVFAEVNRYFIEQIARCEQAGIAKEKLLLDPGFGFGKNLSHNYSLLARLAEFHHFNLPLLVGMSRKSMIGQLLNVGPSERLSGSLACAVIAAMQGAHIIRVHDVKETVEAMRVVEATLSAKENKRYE
Method: (§1) DHFR would only reduce dihydropteroic acid, not 6-hydroxymethyl-7,8-dihydropterin, and as long as the DHFR rate was not slower than the DHPS rate, then the rate limiting step of DHPS is represented by the decrease in absorbance at 340 nm overtime.
(§2) HPPK, DHPS, DHFR and all their associated cosubstrates (ATP, PABA, NADPH) were combined in suitable buffer conditions (pH=7.5) and the optical absorbance at 340 nm was measured over time (see e.g., FIG. 21A).
HPPK/DHPS/DHFR Steady State Kinetics Inhibition
Stock solutions of all reagents were made using 100 mM Tris-buffer (pH=7.5) and stored in fractions in a −80° C. freezer until use (see e.g., TABLE 6).
An assay stock solution containing everything except the HPPK/DHPS/DHFR solution and the Tris buffer+Inhibitor was made and 88.5 μL was distributed to each well (in triplicate) of a quartz 96-well plate to be used. […] 7.5 μL of the enzyme solution containing HPPK/DHPS/DHFR was added to each well and the plate was put into a UV/Vis plate reader and incubated at 37° C. while the optical absorbance at 340 nm was read every 10 s for 1 h. The apparent reaction 1-9 rate for absorbance decrease was measured from between 0-5 min.

[2] = biological target: T1, dihydropteroate synthase (DHPS); assay: HPPK/DHPS/DHFR steady state kinetics with PABA or 3-HβL as DHPS substrate; type: biochemical, E. coli
Method: as §1, §2
HPPK/DHPS/DHFR Steady State Kinetics
Stock solutions of all reagents were made using 100 mM Tris buffer (pH=7.5) and stored in fractions in a −80° C. freezer until use (see e.g., TABLE 5).
An assay stock solution containing everything except the enzymes was made and 142.5 μL was distributed to each well (6 total) on a quartz 96-well plate that had been flushed with argon. To each of the first three wells was then added 7.5 μL of the enzyme solution containing HPPK/DHPS/DHFR, and to each of the last 3 wells was added 7.5 μL of 100 mM Tris-buffer. The 96-well plate was put into a UV/Vis plate reader and incubated at 37° C. while the optical absorbance at nm was read every 10 s for 1 h. The apparent reaction rate for absorbance decrease was measured from between 0-5 min. Each well was combined with their triplicate partners and the solutions were centrifuge filtered through a molecular weight cutoff (MWCO) to remove any enzymes. The solutions then run on an LCMS with single ion monitoring methods to detect the various oxidation states of products.
HPPK/DHPS/DHFR Steady State Kinetics with a 3-HG3L as a Substrate Stock solutions of all reagents were made using 100 mM Tris buffer (pH=7.5) and stored in fractions in a −80° C. freezer until use (see e.g., TABLE 7).
An assay stock solution containing everything except the enzymes was made and 142.5 μL was distributed to each well (6 total) on a quartz 96-well plate that had been flushed with argon. To each of the first three wells was then added 7.5 μL of the enzyme solution containing HPPK/DHPS/DHFR, and to each of the last 3 wells was added 7.5 μL of 100 mM Tris-buffer. The 96-well plate was put into a UV/Vis plate reader and incubated at 37° C. while the optical absorbance at nm was read every 10 s for 1 h. The apparent reaction rate for absorbance decrease was measured from between 0-5 min. Each well was combined with 1-0 their triplicate partners and the solutions were centrifuge filtered through a molecular weight cutoff (MWCO) to remove any enzymes. The solutions then run on an LCMS with single ion monitoring methods to detect the various oxidation states of products.

[3] = biological target: T2, dihydrofolate synthetase (DHFS) (Escherichia coli, UniProt P08192); assay: DHFS steady state kinetics inhibition assay (PK/LDH coupled, absorbance at 340 nm, LCMS of product); type: biochemical, E. coli; conditions: for DHFS product detected by LCMS of the reaction mixtures: higher inhibitor concentrations, FIG. 38A-38B
T2 construct: made in house; host or cells: E. coli BL21 (given for HPPK; the other enzymes 'in the same manner')
T2 sequence (P08192 whole entry): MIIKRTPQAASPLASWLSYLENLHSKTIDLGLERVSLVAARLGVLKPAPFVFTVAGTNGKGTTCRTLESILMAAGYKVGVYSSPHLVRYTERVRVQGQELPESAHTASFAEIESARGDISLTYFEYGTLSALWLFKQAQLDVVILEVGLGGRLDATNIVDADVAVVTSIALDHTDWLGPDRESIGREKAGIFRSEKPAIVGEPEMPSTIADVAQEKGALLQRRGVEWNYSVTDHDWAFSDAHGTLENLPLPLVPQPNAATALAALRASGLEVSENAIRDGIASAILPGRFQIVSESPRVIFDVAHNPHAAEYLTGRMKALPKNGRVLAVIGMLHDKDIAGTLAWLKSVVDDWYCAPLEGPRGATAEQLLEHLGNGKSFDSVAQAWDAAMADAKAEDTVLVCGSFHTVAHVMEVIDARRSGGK
Description: With a suitable DHFS substrate in hand (THFA), conditions to measure the rate of DHFS action were investigated. […] Given none of the substrates or cofactors of DHFS (see e.g., FIG. 19) would be suitable for absorbance change detection, a coupled enzyme reaction with pyruvate kinase/lactate dehydrogenase (PK/LDH) was chosen. In the presence of ADP (in this case produced by DHFS), PK would convert phosphoenolpyruvate (PEP) to pyruvate, reforming ATP in the process (see e.g., FIG. 20A). The pyruvate would then be reduced by LDH in a NADH dependent manner (see e.g., FIG. 20B). The oxidation of NADH to NAD^+ would cause a decrease in absorbance at 340 nm, which can be measured as a rate of DHFS activity as long as the PK/LDH process was not the rate limiting step of the pathway from THFA to NAD^+.
THFA and its associated cofactors (L-Glu, ATP) were dissolved in degassed buffer solution (pH=7.5) to reconstitute DHFS activity with coupling to PK/LDH activity in the presence of excess cosubstrates (PEP, NADH) (see e.g., FIG. 24A). The optical absorbance at 340 nm was measured over time and a steady-state approximation of DHFS rate (7.18 E-5 abs/s) was determined (see e.g., FIG. 24B). Once the reaction had progressed for 20 minutes, 1 M HCl was added to quench the reaction and KCl+MeOH was added to agglutinate the protein and solubilize the pterin-containing metabolites. The vials were heated for 1 h at 70° C. and centrifuged to remove precipitated enzymes. The supernatant solution was spiked with a fixed concentration of Fmoc-alanine as an internal standard for LCMS analysis.
DHFS Steady State Kinetics Inhibition Assay
Stock solutions of all reagents were made using 100 mM Tris-buffer (pH=7.5) an stored in fractions in a −80° C. freezer until use. 1500 μL of a stock solution containing everything (in appropriate amounts to maintain the final concentration calculations for 150 total μL well volume) in the table above except the DHFS and the Tris Buffer+inhibitor was made. Solutions of the Tris Buffer+inhibitor were made so as to achieve final inhibitor concentrations as below. The final concentrations of inhibitor can be adjusted as necessary.
Each necessary well of a quartz 96-well plate was flushed with argon then filled (in triplicate) with 69.75 μL of stock solution and 75.75 μL of Tris Buffer+Inhibitor solution. The quartz plate was incubated at 37° C. for 10 minutes then 4.5 μL of DHFS stock solution was quickly added to each well except well 6, to which 4.5 μL of Tris-buffer was added. The quartz plate was put in a plate reader at 37° C. and the optical absorbance at 340 nm was read every 10 seconds for 20 min. The apparent reaction rate for absorbance decrease was measured from between 0-5 min. Each well was combined with their triplicate partners and the solutions were centrifuge filtered through a molecular weight cutoff (MWCO) to remove any enzymes. The solutions were spiked with enough Fmoc-ala to bring the final concentration to 50 μM (moc-ala then run on an LCMS with single ion monitoring methods to detect the various oxidation states of THEA and Glu-THFA.
An alternative method is as follows: After the 20-minute optical absorbance reading, the triplicate solutions were combined then diluted with 200 μL MeOH and an amount of KCl in H2O to bring the final concentration of KCl to 20 mM. The solutions were then incubated at 70° C. for 1 h. […]

E. coli = assay: Whole cell antibacterial susceptibility test, bacterial growth curves in 96-well plate; type: cell-based
Method: Bacterial growth curves were determined for E. coli using two compounds—inhibitor 4.10 and trimethoprim (positive control). A 96-well plate format was used to achieve serial dilution of the test compounds and included a DMSO control to simulate the concentration of DMSO required to solubilize the test compounds in the growth medium (not shown).

E. coli ATC 25922 = assay: Agar diffusion antibacterial susceptibility assay; type: cell-based; conditions: for zone of inhibition at 3520 µg/mL / zone of inhibition at 15000 µg/mL: Escherichia coli; for zone of inhibition at 15000 µg/mL: 15 mg/mL in DMSO
Method: Inhibitor 4.10 was also used alongside sulfamethoxazole and trimethoprim and in combination with sulfamethoxazole and trimethoprim respectively, in an agar diffusion antibacterial susceptibility assay (see e.g., FIG. 41 and TABLE 11).
An overnight culture of E. coli ATC 25922 was grown in 5 mL of LB broth. 22 g of Mueller Hinton II broth powder and 15 g of agar were dissolved in 1 L of dd-H2O and autoclaved. The MH II agar broth was cooled to 47° C. and 35 mL of MH II agar broth was inoculated with 100 μL of OD600=0.1 E. coli from the overnight culture. The inoculated agar was plated and once cool enough, 10 wells were cut out using a vacuum. Each well was filled with 50 μL DMSO solutions as below and the plates were left in an incubator at 37° C. for 18 h. The zones of inhibition were measured for each well.

DHFS = biological target: T3, DHFS (Escherichia coli, UniProt P08192); assay: Protein mass spectrometry of DHFS incubated with inhibitor (covalent adduct search); design: species or system E. coli; conditions: 0, 40, 400 μM inhibitor, 20 μM DHFS, 37° C., 1 hour
T3 construct: made in house; host or cells: E. coli BL21 (given for HPPK; the other enzymes 'in the same manner')
T3 sequence (P08192 whole entry): as above
Description: If DHFS is indeed phosphorylating the 3-hydroxyl group of the 3-HβL warhead, then why was it not detected by LCMS analysis? The possibility was considered that the higher concentrations of compound 4.10 resulting in 100% DHFS inhibition might be consistent with covalent modification of the enzyme by the inhibitor. This could happen by a variety of different mechanisms including the canonical β-lactam suicide inhibition mechanism through acylation of nucleophilic amino acid side chains. However, there is a potentially novel mechanism at play when considering the reactivity of an activated benzylic position of para-aniline derivatives. The presence of a leaving group at the benzylic position of para-anilines results in the formation of reactive quinone-imine-methide species. If the 3-hydroxy group of inhibitor 4.10 is phosphorylated in the DHFS active site, it could serve as a leaving group leading to spontaneous formation of a quinone-imine-methide that might react with nearby amino acid side chains. This transformation could also take place within the mass spec, making detection of the phosphorylated inhibitor impossible (see e.g., FIG. 39). […] The LCMS samples were also analyzed for the presence of a reaction product between the 3-HβL and L-Glu, but no masses which could match this description were found. […]

[4] = ATC25922, 3.52 mg/mL in DMSO, 50 μL per well, 37° C., 18 h, read-out: Zone of Inhibition
[5] = ATC25922, 50 μL per well, 37° C., 18 h

For `Nc1ccc(C2(O)CNC2=O)cc1` (stereo not shown) [Compound 2.44, 3-(4-aminophenyl)-3-hydroxyazetidin-2-one], the “Inhibition of DHPS (in words)” value [1] was “not an inhibitor of DHPS”, the “Substrate of DHPS, rate as substrate (in words)” value (“Substrate of DHPS, rate” below) [2] was “substrate of DHPS” and the “Substrate of DHPS, rate” value ([2]; listed as 3-(para-NH2-phenyl)-3-HβL) was “substrate”. For the same compound, the “Substrate of DHPS, rate” value ([2]; listed as BVD-3-7) was “slower”.
For `Nc1ncc(CNc2ccc(C3(O)CNC3=O)cc2)c(N)n1` (stereo not shown) [Compound 4.6, 3-(4-(((2,4-diaminopyrimidin-5-yl)methyl)amino)phenyl)-3-hydroxyazetidin-2-one], the “Dose-dependent inhibition of DHFS (in words)” value [3] was “no apparent dose dependent inhibition of DHFS”.
For `Nc1nc(N)c2nc(CNc3ccc(C4(O)CNC4=O)cc3)cnc2n1` (stereo not shown) [Compound 4.10, 3-(4-(((2,4-diaminopteridin-6-yl)methyl)amino)phenyl)-3-hydroxyazetidin-2-one], the “Dose-dependent inhibition of DHFS (in words)” value [3] was “dose-dependent inhibitory response”, the DHFS rate inhibition ([3]; at higher (double digit micromolar) concentrations) was ~100% and the “DHFS product detected by LCMS of the reaction mixtures” value [3] was “no product detected”. The “Inhibition of bacterial growth (in words)” value (E. coli; serial dilution, compared with DMSO control) was “No significant inhibition of bacterial growth”, the “Bacterial growth inhibition in agar diffusion (in words)” value (from here on “Bacterial growth inhibition”) (E. coli ATC 25922; E. coli) was “no bacterial growth inhibition was observed; also recorded: no apparent effect on E. coli growth” and the “Synergistic effect in combination with sulfamethoxazole or trimethoprim (in words)” value (E. coli ATC 25922; E. coli) was “No apparent synergistic effect”. The zone of inhibition at 3520 µg/mL (E. coli ATC 25922; ATC25922, 18 h) was 0 mm and the “3-HβL-DHFS covalent adducts by protein mass spectrometry (in words)” value (DHFS) was “no apparent peaks corresponding to DHFS+334 mass units; also recorded: no 3-HβL—DHFS adducts formed”.
In the case of `NCC(O)(C(=O)O)c1ccc(NCc2cnc3nc(N)nc(N)c3n2)cc1` (stereo not shown) [Compound 4.12, 3-amino-2-(4-(((2,4-diaminopteridin-6-yl)methyl)amino)phenyl)-2-hydroxypropanoic acid], the “DHFS product detected by LCMS of the reaction mixtures” value [3] is reported as “still showed some product”.
`Nc1ccc(C(=O)O)cc1` [PABA, p-amino-benzoic acid, reference compound] was tested, and the “Substrate of DHPS, rate” value [2] was “faster”.
For `Cc1cc(NS(=O)(=O)c2ccc(N)cc2)no1` [sulfamethoxazole], the “Bacterial growth inhibition” value (E. coli ATC 25922; E. coli) was “clear zones of bacterial growth inhibition”, the zone of inhibition at 3520 µg/mL (E. coli ATC 25922; [4]) was 23.2 mm and the zone of inhibition at 15000 µg/mL (E. coli ATC 25922; [5]) was 25.9 mm.
With `COc1cc(Cc2cnc(N)nc2N)cc(OC)c1OC` [trimethoprim] the MIC (E. coli; Escherichia coli, read-out: MIC (minimum inhibitory concentration)) was 2 µM (≈ 0.581 µg/mL), the “Bacterial growth inhibition” value (E. coli ATC 25922; E. coli) was “clear zones of bacterial growth inhibition” and the zone of inhibition at 3520 µg/mL (E. coli ATC 25922; [4]) was 39.6 mm. For the same compound, the zone of inhibition at 15000 µg/mL (E. coli ATC 25922; [5]) was 45.3 mm.
